# Laboratory results published in US20190038597A1, “PREVENTION OF VASCULAR AND CARDIAC FIBROSIS VIA IRE1ALPHA INHIBITION” (McMaster University, priority 2017, published 2019).
# Legend:
# [1] = system: GRP78, GRP94 and PDI; assay: Western blot of ER chaperone / ER stress marker expression in VSMCs; format: cell-based, rat
# Experimental: VSMCs were treated with tunicamycin (1 μg/ml) and either 4μ8c (30 μM) or STF-083010 (60 μM) for 6 h or 24 h. (A) Agarose gel for assessment of XBP1 splicing after 6 h of treatment with tunicamycin and densitometric quantification. (B) Western blot for assessment of ER chaperone expression after 24 h tunicamycin treatment with or without inhibition of IRE1α by 4μ8c. Data is presented as mean±SEM. *, p<0.05 vs. Vehicle; #, p<0.05 vs. Tm.
# VSMCs were cultured in DMEM/F12 containing 1% FBS. Confluent cells were treated with L-ascorbic acid-2-phosphate (100 μg/ml) and either TGF-β1 (5 ng/ml) or Ang II (1 μM). (A) Agarose gel for assessment of TGF-β1-induced XBP1 splicing in VSMCs after 24 h. (B) Picro-Sirius Red assay for measurement of collagen deposition induced by combined TGF-β1 and AA2P treatment after 72 h, and inhibition by 4μ8c and STF-083010. (C) Western blot for assessment of collagen chaperone expression after treatment of TGF-β1 and 4μ8c for 48 h. *, p<0.05. (D) Measurement of Ang II-induced collagen production and inhibition by 4μ8c and STF-083010 after 72 h.
# VSMCs were isolated from the aortas of 5-week old WKY rats using the explant method^29. The thoracic aorta was removed from the animal and placed in ice-cold 5× Antibiotics-Antimycotics solution (ThermoFisher). The adventitia was gently removed and the aorta was cut longitudinally. The endothelial layer was removed by gentle scraping with forceps. The aorta was cut into 3 mm^2 squares and placed on a 6 well plate in DMEM/F12 medium containing 10% fetal bovine serum (FBS). Explants were incubated undisturbed in a 5% CO2 incubator at 37° C. for 1 week and then passaged. […]
# Cells were lysed in 1× Laemmli buffer and protein content was quantified using the BioRad DC Protein Assay (BioRad, Mississauga, Canada). […]
# [2] = system: primary rat renal fibroblasts; assay: Picro-Sirius Red assay of collagen production in renal fibroblasts; format: cell-based; settings: AA2P, TGF-β1, 72 h co-treatment, FIG. 3
# Experimental: Rat renal fibroblasts were treated with L-ascorbic acid-2-phosphate, TGF-β1 and 4μ8c for 72 h. Collagen production was measured by a Picro-Sirius Red assay. **, p<0.01.
# VSMCs were isolated from the aortas of 5-week old WKY rats using the explant method^29. The thoracic aorta was removed from the animal and placed in ice-cold 5× Antibiotics-Antimycotics solution (ThermoFisher). The adventitia was gently removed and the aorta was cut longitudinally. The endothelial layer was removed by gentle scraping with forceps. The aorta was cut into 3 mm^2 squares and placed on a 6 well plate in DMEM/F12 medium containing 10% fetal bovine serum (FBS). Explants were incubated undisturbed in a 5% CO2 incubator at 37° C. for 1 week and then passaged. Sprague-Dawley renal fibroblasts were purchased (Cell Biologics) and cultured in low glucose DMEM/F12 medium containing 10% FBS, streptomycin (100 μgimp, and penicillin (100 U/ml, Invitrogen, Burlington, ON). Cells between passages 5 and 10 were used for experiments. Cells were cultured in medium containing 1% FBS overnight before treatment.
# Collagen synthesis was measured using a Picro-Sirius Red-based assay as previously described^30. Briefly, cells cultured on a 96 well plate were fixed in methanol for 10 minutes at −20° C. […] Absorbance at 540 nm was measured using a Spectramax Plus Microplate Reader (Molecular Devices). […]
# [3] = system: SHR/L-NAME model of hypertension; assay: Vascular stiffness by wire myograph in L-NAME-treated SHRs; format: in vivo, rat; settings: L-NAME+4μ8c group, 18 days, maximally relaxed vessels
# Experimental: 12-14 week old male SHRs were randomized to receive vehicle, L-NAME (50 mg/L) or L-NAME and 4μ8c (2.5 mg/kg/day i.p.) for 18 days. Aortas and carotid arteries were removed at sacrifice for mechanical and structural analysis. (A) Picro-Sirius Red staining of aorta and carotid artery sections (B) Determination of soluble collagen content in aorta and carotid arteries by Picro-Sirius Red-based assay. Stress-strain curves (C,E), elastic modulus-stress lines (D,F) and the slope of the elastic modulus-stress lines (G,H) were calculated. Data is presented as mean±SEM. *, p<0.05 vs. NT; #, p<0.05 vs. L-NAME. N≥4 per group; 2-5 segments of the thoracic aorta were analyzed per animal. […]
# Vessels were mounted on a steel wire myograph and incubated in Ca^2±-free Hank's Basic Salt Solution containing 100 μM sodium nitroprusside to ensure maximum relaxation. […] Images of the vessels at each incremental tension were captured and lumen diameters were measured with ImageJ software. Circumferential stress (a) was calculated as F/tl, where F is the tension in the vessel wall, t is the radial thickness of the vessel wall and 1 is the axial length of the aortic ring. Circumferential strain (c) was calculated as (D−D0)/D0 where D is the lumen diameter at a given tension and D0 is the initial diameter under maximally relaxed conditions. […]
structure (smiles),measurement,setting,value
"Cc1cc(=O)oc2c(C=O)c(O)ccc12 [4μ8c, 7-Hydroxy-4-methyl-2-oxo-2H-chromene-8-carbaldehyde]","elevated expression levels of ER stress markers GRP78, GRP94 and PDI","[1]; 24 h tunicamycin treatment, FIG. 1B",reduced
same,"TGF-β1-increased expression of collagen chaperones and ER stress markers GRP78, GRP94 and PDI","[1]; TGF-β1 48 h, FIG. 2C",lowered
same,collagen levels in response to TGF-β1,[2],reduced
same,"slope of the elastic modulus-stress line, carotid artery",[3],14.42±0.59
same,"slope of the incremental elastic modulus versus stress line, aorta",[3],3.970±0.129
